In PubChem BioAssay AID1963865 (Molecular Pharmacology Branch, DTP, NCI, 2024):

Tested on: KRAS PDC multicell spheroid viability
Experiment: Anticancer human tumor 825966-067-R-J1-PDC patient-derived colon carcinoma cell line growth inhibition [KRAS2]
Settings: for IC50: curve of first compound; for viability, T/C: stronger effect = lower value; active = viability on the fitted dose curve at most 10% of control; inactive = the rest
In short: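 KRAS-mutant tumor cells were grown as spheroids with HUVEC endothelial cells and human MSCs as stroma. Targeted agents were tested alone and with KRAS pathway inhibitors. Doses started at or near clinical Cmax, or 10 microM, descending half-log.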
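Note: spheroids exposed to compounds for 7 days.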
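Throughout, for viability, T/C: 100% = DMSO vehicle control viability.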

COC(=O)c1ccc2c(C(=Nc3ccc(N(C)C(=O)CN4CCN(C)CC4)cc3)c3ccccc3)c(O)[nH]c2c1 + COc1cc2nc(C)nc(NC(C)c3cc(N)cc(C(F)(F)F)c3)c2cc1OC1CCOC1
inactive: viability, T/C (second compound 0.1 µM, first compound 0.0316 µM) 89.6% | viability, T/C (second compound 0.1 µM, first compound 0.1 µM) 95.6% | viability, T/C (second compound 0.1 µM, first compound 0.316 µM) 81.4% | viability, T/C (second compound 0.1 µM, first compound 1 µM) 92.9% | viability, T/C (second compound 0.316 µM, first compound 0.0316 µM) 94.4% | viability, T/C (second compound 0.316 µM, first compound 0.1 µM) 79.9% | viability, T/C (second compound 0.316 µM, first compound 0.316 µM) 82.4% | viability, T/C (second compound 0.316 µM, first compound 1 µM) 81.8% | viability, T/C (second compound 1 µM, first compound 0.0316 µM) 88.1% | viability, T/C (second compound 1 µM, first compound 0.1 µM) 98.1% | viability, T/C (second compound 1 µM, first compound 0.316 µM) 92.3% | viability, T/C (second compound 1 µM, first compound 1 µM) 42.1% | viability, T/C (second compound 3.16 µM, first compound 0.0316 µM) 95% | viability, T/C (second compound 3.16 µM, first compound 0.1 µM) 103% | viability, T/C (second compound 3.16 µM, first compound 0.316 µM) 101% | viability, T/C (second compound 10 µM, first compound 0.0316 µM) 9.43%
1670 nM: IC50 (second compound 0.1 µM)
836 nM: IC50 (second compound 1 µM)
1570 nM: IC50 (second compound 0.316 µM)
< 31.6 nM: IC50 (second compound 10 µM)
592 nM: IC50 (second compound 3.16 µM)
active: viability, T/C (second compound 0.1 µM, first compound 3.16 µM) 0.3% | viability, T/C (second compound 0.1 µM, first compound 10 µM) 0.16% | viability, T/C (second compound 0.316 µM, first compound 3.16 µM) 0.33% | viability, T/C (second compound 0.316 µM, first compound 10 µM) 0.13% | viability, T/C (second compound 1 µM, first compound 3.16 µM) 0.16% | viability, T/C (second compound 1 µM, first compound 10 µM) 0.13% | viability, T/C (second compound 3.16 µM, first compound 1 µM) 8.39% | viability, T/C (second compound 3.16 µM, first compound 3.16 µM) 0.1% | viability, T/C (second compound 3.16 µM, first compound 10 µM) 2% | viability, T/C (second compound 10 µM, first compound 0.1 µM) 10.3% | viability, T/C (second compound 10 µM, first compound 0.316 µM) 1.07% | viability, T/C (second compound 10 µM, first compound 1 µM) 0.34% | viability, T/C (second compound 10 µM, first compound 3.16 µM) 0.13% | viability, T/C (second compound 10 µM, first compound 10 µM) 0.58%
